Measured values published in ChEMBL document CHEMBL5131561, “Modified Benzofuran-carboxamide Compounds as Glucosylceramide Synthase Inhibitors for Treating Diseases” (ACS Med Chem Lett, 2022).

Target: T1, Ceramide glucosyltransferase (Homo sapiens, UniProt Q16739)
T1 sequence (Q16739 whole entry): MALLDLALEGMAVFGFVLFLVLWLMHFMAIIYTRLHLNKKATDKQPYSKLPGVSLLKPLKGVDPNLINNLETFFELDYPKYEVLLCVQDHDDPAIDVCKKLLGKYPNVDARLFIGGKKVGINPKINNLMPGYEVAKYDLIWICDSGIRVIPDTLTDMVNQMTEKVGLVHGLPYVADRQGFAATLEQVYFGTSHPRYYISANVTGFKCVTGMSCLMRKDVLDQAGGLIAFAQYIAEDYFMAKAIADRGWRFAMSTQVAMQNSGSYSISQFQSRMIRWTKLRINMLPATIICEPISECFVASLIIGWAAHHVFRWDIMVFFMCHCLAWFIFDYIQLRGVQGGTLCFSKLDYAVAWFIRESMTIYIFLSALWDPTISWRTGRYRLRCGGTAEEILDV
Assay: Inhibition of GCS in human A-375 cells using C6-ceramide and UDP-glucose as substrate preincubated for 30 mins followed by substrate addition measured after 20 hrs by UDP-Glo glucosylceramide synthase based luminometer analysis
Assay type: cell-based

In the case of `N#Cc1ccc(Cl)c(-c2cccc3cc(C(=O)N[C@H]4CC[C@@H](O)C4)oc23)c1`, the EC50 is reported as 0.047 nM.
